Columns and labels:
[1] = test system: Human colorectal cancer cell line HCT116; experiment: Test 1 of anti-proliferative activity against tumor cells (Cell-Titer Glo); format: cell-based; conditions: Homo sapiens, HCT-116, 72 h, read-out: HCT116 Anti-proliferative activity IC50 (nM), HCT116 cells, cultured 3 days with compound, Cell-Titer Glo
Protocol: (§1) Cell culture: HCT116 cells and SKBR3 cells were cultured in McCoy's 5a medium containing 10% fetal bovine serum+1% penicillin-streptomycin at 37° C. and 5% CO2, and OVCAR3 cells were cultured in 1640 medium containing 20% fetal bovine serum+2 μg/mL bovine insulin+1% penicillin-streptomycin at 37° C. and 5% CO2. Cells in logarithmic growth phase were suitable for the experiment.
(§2) Detection of cell proliferation activity: The inhibitory activity of the compounds on the proliferation of the three cell lines HCT116, SKBR3 and OVCAR3 was detected using Cell-Titer Glo reagent. HCT116 cells (1500 cells per well), SKBR3 cells (3000 cells per well) and OVCAR3 cells (5000 cells per well) were seeded in 96-well plates and cultured at 37° C. and 5% CO2 for 24 h. The solution of the compound to be tested (the compound was dissolved in DMSO with the concentration of the compound being 1 mM, then the compound was diluted to 3 μM with DMSO, with 3-fold dilution and a total of 9 concentrations, and 10 μL of the prepared compound solution was transferred to a 96-well plate with the final concentration of 0-300 nM) was added. The cells were placed at 37° C. and 5% CO2 for further culture. HCT116 cells were cultured for 3 days, and SKBR3 cells and OVCAR3 cells were cultured for 5 days. The cell viability was detected by adding Cell-Titer Glo reagent.
(§3) Additionally, a negative control group and a positive control group were provided as Bottom and Top, respectively. In the negative control group, the cells were not added, only the same volume of medium was added, and other operations were consistent with those in the experimental group; in the positive control group, the test compound was not added, only the same volume of DMSO was added, and other operations were consistent with those in the experimental group.
(§4) Data analysis: The % compound inhibition was calculated, and fitting was performed to obtain IC50 of the compound.
(§5) % Compound inhibition=1−100%*(Signal−Bottom)/(Top−Bottom).
(§6) Signal represents the signal value of the experimental group, Bottom represents the average signal value of the negative control group, and Top represents the average signal value of the positive control group.

[2] = test system: human breast cancer cell line SKBR3; experiment: as above; format: cell-based; conditions: Homo sapiens, SK-BR-3, 120 h, read-out: SKBR3 Anti-proliferative activity IC50 (nM), SKBR3 cells, cultured 5 days with compound, Cell-Titer Glo
Protocol: as §1, §2, §3, §4, §5, §6

| SMILES | IC50 [1] [nM] | IC50 [2] [nM] |
| --- | --- | --- |
| CC[C@@]1(O)C(=O)OCc2c1cc1n(c2=O)Cc2c-1nc1cc3c(cc1c2CNC(=O)CO)OCCO3 [Compound 1, (S)-N-((8-ethyl-8-hydroxy-9,12-dioxo-2,3,8,9,12,14-hexahydro-11H-[1,4]dioxino[2,3-g]pyrano[3′,4′:6,7]indolizino[1,2-b]quinolin-15-yl)methyl)-2-hydroxyacetamide] | 36.8 | 8.5 |
| CC[C@@]1(O)C(=O)OCc2c1cc1n(c2=O)Cc2c-1nc1cc(F)c(Cl)cc1c2CN [Compound 2, (S)-11-(aminomethyl)-9-chloro-4-ethyl-8-fluoro-4-hydroxy-1,12-dihydro-14H-pyrano[3′,4′:6,7]indolizino[1,2-b]quinoline-3,14(4H)-dione] | 3.6 | 2.5 |
| CC[C@@]1(O)C(=O)OCc2c1cc1n(c2=O)Cc2c-1nc1cc(F)c(Cl)cc1c2CNC(=O)CO [Compound 3, (S)-N-((9-chloro-4-ethyl-8-fluoro-4-hydroxy-3,14-dioxo-3,4,12, 14-tetrahydro-1H-pyrano[3′,4′:6,7]indolizino[1,2-b]quinolin-11-yl)methyl)-2-hydroxyacetamid] | 18.2 | 3.6 |
| CC[C@@]1(O)C(=O)OCc2c1cc1n(c2=O)Cc2c-1nc1cc(F)c(Br)cc1c2CN [Compound 4, (S)-11-(aminomethyl)-9-bromo-4-ethyl-8-fluoro-4-hydroxy-1,12-dihydro-14H-pyrano[3′,4′:6,7]indolizino[1,2-b]quinoline-3,14(4H)-dione] | 3.6 | 2.7 |
| CC[C@@]1(O)C(=O)OCc2c1cc1n(c2=O)Cc2c-1nc1cc(F)c(Br)cc1c2CNC(=O)CO [Compound 5, (S)-N-((9-bromo-4-ethyl-8-fluoro-4-hydroxy-3,14-dioxo-3,4, 12,14-tetrahydro-1H-pyrano[3′,4′:6,7]indolizino[1,2-b]quinolin-11-yl)methyl)-2-hydroxyacetamide] | 16.9 | 3.3 |
| CC[C@@]1(O)C(=O)OCc2c1cc1n(c2=O)Cc2c-1nc1ccc3c(c1c2CNC(=O)CO)CCC3 [Compound 7, (S)-N-((8-ethyl-8-hydroxy-9,12-dioxo-2,3,8,9,12,14-hexahydro-1H,11H-cyclopentadieno[f]pyrano[3′,4′:6,7]indolizino[1,2-b]quinolin-15-yl)methyl)-2-hydroxyacetamide] | 22.8 |  |
| CC[C@@]1(O)C(=O)OCc2c1cc1n(c2=O)Cc2cc3c(CNC(=O)CO)c(O)ccc3nc2-1 [Compound 8, (S)-N-((4-ethyl-4,9-dihydroxy-3,14-dioxo-3,4,12,14-tetrahydro-1H-pyrano[3′,4′:6,7]indolizino[1,2-b]quinolin-10-yl)methyl)-2-hydroxyacetamide] | 289 | 55.1 |
| CC[C@@]1(O)C(=O)OCc2c1cc1n(c2=O)Cc2c-1nc1cc(F)c(C)cc1c2CNC(=O)C1(O)CC1 [Compound 9, (S)-N-((4-ethyl-8-fluoro-4-hydroxy-9-methyl-3,14-dioxo-3,4,12, 14-tetrahydro-1H-pyrano[3′,4′:6,7]indolizino[1,2-b]quinolin-11-yl)methyl)-1-hydroxycyclopropane-1-carboxamide] | 4.6 | 2.1 |
| CC[C@@]1(O)C(=O)OCc2c1cc1n(c2=O)Cc2c-1nc1cc(Cl)c(C)cc1c2CNC(=O)C1(O)CC1 [Compound 10, (S)-N-((8-chloro-4-ethyl-4-hydroxy-9-methyl-3,14-dioxo-3,4, 12,14-tetrahydro-1H-pyrano[3′,4′:6,7]indolizino[1,2-b]quinolin-11-yl)methyl)-1-hydroxycyclopropan-1-carboxamide] | 5.6 | 2.3 |
| CC[C@@]1(O)C(=O)OCc2c1cc1n(c2=O)Cc2c-1nc1cc(Cl)c(C)cc1c2CNC(=O)C(O)C1CC1 (stereo partly drawn) [Compound 11, N-(((S)-8-chloro-4-ethyl-4-hydroxy-9-methyl-3,14-dioxo-3,4, 12,14-tetrahydro-1H-pyrano[3′,4′:6,7]indolizino[1,2-b]quinolin-11-yl)methyl)-2-cyclopropyl-2-hydroxyacetamide] | 10.4 | 3.2 |
| CC[C@@]1(O)C(=O)OCc2c1cc1n(c2=O)Cc2c-1nc1cc(F)c(Cl)c(F)c1c2CN [Compound 12, (S)-11-(aminomethyl)-9-chloro-4-ethyl-8,10-difluoro-4-hydroxy-1,12-dihydro-14H-pyrano[3′,4′:6,7]indolizino[1,2-b]quinoline-3,14(4H)-dione] | 13.7 | 4.8 |
| CC[C@@]1(O)C(=O)OCc2c1cc1n(c2=O)Cc2c-1nc1cnc(Br)cc1c2CNC(=O)CO [Compound 15, (S)-N-((9-bromo-4-ethyl-4-hydroxy-3,14-dioxo-3,4,12,14-tetrahydro-1H-pyrano[3′,4′:6,7]indolizino[1,2-b][1,7]naphthyridin-11-yl)methyl)-2-hydroxyacetamide] | 81.3 |  |
| CC[C@@]1(O)C(=O)OCc2c1cc1n(c2=O)Cc2c-1nc1cc(F)c(Cl)c(F)c1c2CNC(=O)C1(O)CC1 [Compound 16, (S)-N-((9-chloro-4-ethyl-8,10-difluoro-4-hydroxy-3,14-dioxo-3,4,12,14-tetrahydro-1H-pyrano[3′,4′:6,7]indolizino[1,2-b]quinolin-11-yl)methyl)-1-hydroxycyclopropane-1-carboxamide] | 3 | 2.3 |
| CC[C@@]1(O)C(=O)OCc2c1cc1n(c2=O)Cc2c-1nc1cc(Cl)c(C)cc1c2CNC(=O)C(C)(C)O [Compound 17, (S)-N-((8-chloro-4-ethyl-4-hydroxy-9-methyl-3,14-dioxo-3,4, 12,14-tetrahydro-1H-pyrano[3′,4′:6,7]indolizino[1,2-b]quinolin-11-yl)methyl)-2-hydroxy-2-methylpropanamide] | 6 | 2.7 |
| CC[C@@]1(O)C(=O)OCc2c1cc1n(c2=O)Cc2c-1nc1cc(Cl)c(C)cc1c2CNC(=O)C(O)C(C)C (stereo partly drawn) [Compound 18, N-(((S)-8-chloro-4-ethyl-4-hydroxy-9-methyl-3,14-dioxo-3,4, 12,14-tetrahydro-1H-pyrano[3′,4′:6,7]indolizino[1,2-b]quinolin-11-yl)methyl)-2-hydroxy-3-methylbutanamide] | 10.5 | 5.1 |
| CC[C@@]1(O)C(=O)OCc2c1cc1n(c2=O)Cc2c-1nc1cc(F)c(C)cc1c2CNC1(CO)CC1 [Compound 19, (S)-4-ethyl-8-fluoro-4-hydroxy-11-(((1-(hydroxymethyl)cyclopropyl)amino)methyl)-9-methyl-1,12-dihydro-14H-pyrano[3′,4′:6,7]indolizino[1,2-b]quinoline-3,14(4H)-dione] | 5 | 4 |
| CC[C@@]1(O)C(=O)OCc2c1cc1n(c2=O)Cc2c-1nc1ccc3occc3c1c2CNC(=O)CO [Compound 20, (S)-N-((8-ethyl-8-hydroxy-9,12-dioxo-8,9,12,14-tetrahydro-11H-furo[3,2-f]pyrano[3′,4′:6,7]indolizino[1,2-b]quinolin-15-yl)methyl)-2-hydroxyacetamide] | 20.7 | 10.5 |
| CC[C@@]1(O)C(=O)OCc2c1cc1n(c2=O)Cc2c-1nc1cc(Cl)c3occc3c1c2CNC(=O)CO [Compound 27, (S)-N-((4-chloro-8-ethyl-8-hydroxy-9,12-dioxo-8,9,12,14-tetrahydro-11H-furo[3,2-f]pyrano[3′,4′:6,7]indolizino[1,2-b]quinolin-15-yl)methyl)-2-hydroxyacetamide] | 24.3 |  |
| CC[C@@]1(O)C(=O)OCc2c1cc1n(c2=O)Cc2c-1nc1cc(Cl)c3occc3c1c2CNC(=O)C(O)C1CC1 (stereo partly drawn) [Compound 28, N-(((S)-4-chloro-8-ethyl-8-hydroxy-9,12-dioxo-8,9,12,14-tetrahydro-11H-furo[3,2-f]pyrano[3′,4′:6,7]indolizino[1,2-b]quinolin-15-yl)methyl)-2-cyclopropyl-2-hydroxyacetamide] | 8.8 |  |
| CC[C@@]1(O)C(=O)OCc2c1cc1n(c2=O)Cc2c-1nc1cc3c(c([N+](=O)[O-])c1c2CNC(=O)C(O)C1CC1)OCO3 (stereo partly drawn) [Compound 29, 2-cyclopropyl-N-(((S)-7-ethyl-7-hydroxy-15-nitro-8,11-dioxo-7,8,11,13-tetrahydro-10H-[1,3]dioxolo[4,5-g]pyrano[3′,4′:6,7]indolizino[1,2-b]quinolin-14-yl)methyl)-2-hydroxyacetamide] | 55.1 |  |
